In article PMC11747885, “Potent inhibitors of the human RNA ligase Rlig1 highlights its role in RNA integrity maintenance under oxidative cellular stress” (Chemical Science, 2025):
≈ marks a conversion by molar mass, not a printed value. Where “and” joins values, the source holds several entries; their conditions need not be identical. Equal entries are not always repeated. Entries after “also recorded” stand apart in the source; their conditions may differ. Where two headings read alike, the source gives them in different places.

Experiments:
Rlig1-AMP [1] = target: T1, Rlig1-AMP (Homo sapiens, UniProt Q8N999); assay: Radioactive RNA ligation assay (hit validation, 10 µM test and IC50 determination); type: biochemical; details: for inhibition of Rlig1-AMP ligation (urea-PAGE): 10 μM compound; for IC50: n = 3; for percentage inhibition (dose response curve for IC50): replicates I-III; for LogIC50 (best-fit value): log of µM; for Bottom (best-fit value) / Top (best-fit value): log(inhibitor) vs. response, variable slope (four parameters)
T1 construct: made in house; host or cells: E. coli BL21 (DE3), pET15b-Rlig1
T1 sequence (Q8N999 whole entry): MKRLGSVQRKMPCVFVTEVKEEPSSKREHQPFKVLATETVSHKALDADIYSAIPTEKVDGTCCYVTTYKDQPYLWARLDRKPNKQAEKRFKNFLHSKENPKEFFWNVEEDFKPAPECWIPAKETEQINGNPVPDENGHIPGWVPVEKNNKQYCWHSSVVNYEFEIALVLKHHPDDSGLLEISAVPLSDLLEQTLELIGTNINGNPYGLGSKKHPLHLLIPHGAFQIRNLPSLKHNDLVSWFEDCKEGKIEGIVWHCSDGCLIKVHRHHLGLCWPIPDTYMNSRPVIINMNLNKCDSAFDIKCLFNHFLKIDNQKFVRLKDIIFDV

[2] = target: T2, human DNA ligase 1 (hLig1) (Homo sapiens, UniProt P18858); assay: DNA ligation assay with various hLig1 concentration at constant inhibitor concentration; type: biochemical; details: 30 min 37 °C; for DNA product formation: 10 µM compound, three replicates
T2 construct: made in house; host or cells: E. coli Rosetta BL21 (DE3), pET28a-hLig1
T2 sequence (P18858 whole entry): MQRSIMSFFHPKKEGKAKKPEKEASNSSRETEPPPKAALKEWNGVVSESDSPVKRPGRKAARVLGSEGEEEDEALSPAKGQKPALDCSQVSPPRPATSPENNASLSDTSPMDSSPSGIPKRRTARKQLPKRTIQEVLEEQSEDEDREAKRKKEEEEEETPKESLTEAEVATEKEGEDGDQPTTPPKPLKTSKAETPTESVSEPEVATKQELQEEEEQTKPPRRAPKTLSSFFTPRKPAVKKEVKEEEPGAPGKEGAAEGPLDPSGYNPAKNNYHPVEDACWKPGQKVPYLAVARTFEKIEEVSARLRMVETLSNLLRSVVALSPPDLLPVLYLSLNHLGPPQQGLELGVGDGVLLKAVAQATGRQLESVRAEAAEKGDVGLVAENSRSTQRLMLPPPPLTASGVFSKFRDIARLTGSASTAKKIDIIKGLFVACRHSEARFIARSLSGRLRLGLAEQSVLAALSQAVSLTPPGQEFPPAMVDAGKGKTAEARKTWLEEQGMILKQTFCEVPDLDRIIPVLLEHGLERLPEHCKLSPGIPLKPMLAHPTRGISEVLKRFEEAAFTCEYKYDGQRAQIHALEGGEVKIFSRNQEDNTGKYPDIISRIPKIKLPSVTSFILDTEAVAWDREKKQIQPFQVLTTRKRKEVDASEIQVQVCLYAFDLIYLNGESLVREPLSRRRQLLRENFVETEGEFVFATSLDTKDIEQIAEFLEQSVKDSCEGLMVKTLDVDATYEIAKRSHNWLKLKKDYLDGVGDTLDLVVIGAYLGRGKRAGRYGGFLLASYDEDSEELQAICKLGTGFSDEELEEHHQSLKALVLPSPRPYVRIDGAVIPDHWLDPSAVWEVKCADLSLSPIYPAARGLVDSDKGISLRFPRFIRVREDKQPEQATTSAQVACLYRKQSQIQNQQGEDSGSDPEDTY

HEK293 cells = assay: Cell viability assay of HEK293 cells treated with inhibitors (CellTiter-Glo); details: for cytotoxicity (in words): HEK293, 24 h, up to 30 μM; for EC50: HEK293, 24 h compound, highest concentration 30 μM, n = 3; for IC50 (Figure 3D: EC50 values for plot; log(inhibitor) vs. response -- Variable slope (four parameters)) / LogIC50 (log(inhibitor) vs. response -- Variable slope (four parameters)): HEK293 cell viability, fit per plate (3 plates, 4 technical replicates each); for IC50 (Figure 3D: EC50 values for plot; log(inhibitor) vs. response -- Variable slope (four parameters)): highest tested concentration 30 µM; for LogIC50 (log(inhibitor) vs. response -- Variable slope (four parameters)): log of [µM]
Rlig1-AMP [3] = target: T1, Rlig1-AMP; assay: FRET-based high-throughput screening of inhibitors for Rlig1-AMP; type: biochemical; details: for Raw data [w Enyzm]: with enzyme; for Raw data [w/o Enzym]: without enzyme
[4] = DMSO; ref MedChemExpress; cited from earlier work
[5] = ref MedChemExpress, cited from earlier work
[6] = ultrasonic/warming, ref MedChemExpress, cited from earlier work
[7] = ref MedChemExpress, cited from earlier work; remark: listed apart in the source
[8] = four-parameter fit, read-out: IC50 (best-fit value)
[9] = radioactive ligation assay, 500 nM Rlig1-AMP, 20 min 37 °C, read-out: IC50
[10] = HTS hits, difference of raw data w/o and w enzyme
[11] = HTS hits, normalized value (npi)

Nc1nc(Nc2ccc(NC(=O)c3ccc(Nc4ccnc5ccccc45)cc3)cc2)cc(C(F)(F)F)n1 [Compound 41]
inhibition of Rlig1-AMP ligation (urea-PAGE) (Rlig1-AMP [1]; 500 nM Rlig1-AMP, 20 min 37 °C): Ligation was inhibited; also recorded: fully inhibited | HillSlope (best-fit value) (Rlig1-AMP [1]; four-parameter fit): 6.706 | Span (best-fit value) (Rlig1-AMP [1]; four-parameter fit): 91.68 | IC50 (Rlig1-AMP [1]; [8]): 7.98 µM | percentage inhibition (dose response curve for IC50) (Rlig1-AMP [1]; log Compound [µM] 0.273001): 1.895 and 15.4708 and 0.5134 | percentage inhibition (dose response curve for IC50) (Rlig1-AMP [1]; log Compound [µM] 0.574031): 11.1208 and 11.2726 and 0 | percentage inhibition (dose response curve for IC50) (Rlig1-AMP [1]; log Compound [µM] 0.875061): 30.9538 and 51.1087 and 45.619 | percentage inhibition (dose response curve for IC50) (Rlig1-AMP [1]; log Compound [µM] 1.17609): 95.8601 and 98.8258 and 95.9476 | percentage inhibition (dose response curve for IC50) (Rlig1-AMP [1]; log Compound [µM] 1.47712): 93.067 and 100 and 99.7336 | percentage inhibition (dose response curve for IC50) (Rlig1-AMP [1]; log Compound [µM] -0.0280287): 9.18 and 3.83 and 4.351 | percentage inhibition (dose response curve for IC50) (Rlig1-AMP [1]; log Compound [µM] -0.329059): 8.319 and 4.077 and 3.842 | percentage inhibition (dose response curve for IC50) (Rlig1-AMP [1]; log Compound [µM] -0.630089): 9.025 and 10.4021 and 1.823 | LogIC50 (best-fit value) (Rlig1-AMP [1]; four-parameter fit): 0.9022 | Bottom (best-fit value) (Rlig1-AMP [1]): 6.221 | Top (best-fit value) (Rlig1-AMP [1]): 97.9 | IC50 (Rlig1-AMP [1]; [9]): 7.98 µM | effect on hLig1 activity (in words) ([2]; 10 μM compound, hLig1 titrated (500 nM to 31.3 nM)): least impact on hLig1 activity | DNA product formation ([2]; hlig1 0.0315 µM): 32.8195% and 34.8543% and 48.0642% | DNA product formation ([2]; hlig1 0.0625 µM): 59.0993% and 56.4484% and 66.8349% | DNA product formation ([2]; hlig1 0.5 µM): 87.3568% and 90.1164% and 79.5057% | cytotoxicity (in words) (HEK293 cells): comparatively high cytotoxicity | EC50 (HEK293 cells): 5.59 µM | IC50 (Figure 3D: EC50 values for plot; log(inhibitor) vs. response -- Variable slope (four parameters)) (HEK293 cells): 5.211 µM and 5.311 µM and 6.697 µM | LogIC50 (log(inhibitor) vs. response -- Variable slope (four parameters)) (HEK293 cells): 0.717 and 0.7252 and 0.8259

CNc1nccc(Nc2ccc(NC(=O)c3ccc(Nc4ccnc5ccccc45)cc3)cc2)n1 [Compound 42]
inhibition of Rlig1-AMP ligation (urea-PAGE) (Rlig1-AMP [1]; 500 nM Rlig1-AMP, 20 min 37 °C): Ligation was inhibited; also recorded: fully inhibited | HillSlope (best-fit value) (Rlig1-AMP [1]; four-parameter fit): 5.584 | Span (best-fit value) (Rlig1-AMP [1]; four-parameter fit): 91.59 | IC50 (Rlig1-AMP [1]; [8]): 3.29 µM | percentage inhibition (dose response curve for IC50) (Rlig1-AMP [1]; log Compound [µM] 0.273001): 16.0159 and 7.852 and 10.1751 | percentage inhibition (dose response curve for IC50) (Rlig1-AMP [1]; log Compound [µM] 0.574031): 79.3655 and 83.1907 and 44.7582 | percentage inhibition (dose response curve for IC50) (Rlig1-AMP [1]; log Compound [µM] 0.875061): 100 and 98.6279 and 97.3725 | percentage inhibition (dose response curve for IC50) (Rlig1-AMP [1]; log Compound [µM] 1.17609): 100 (2×) and 92.704 | percentage inhibition (dose response curve for IC50) (Rlig1-AMP [1]; log Compound [µM] 1.47712): 100 | percentage inhibition (dose response curve for IC50) (Rlig1-AMP [1]; log Compound [µM] -0.0280287): 9.717 and 4.5039 and 9.184 | percentage inhibition (dose response curve for IC50) (Rlig1-AMP [1]; log Compound [µM] -0.329059): 6.426 and 0 and 5.66 | percentage inhibition (dose response curve for IC50) (Rlig1-AMP [1]; log Compound [µM] -0.630089): 11.6754 and 8.294 and 11.6155 | LogIC50 (best-fit value) (Rlig1-AMP [1]; four-parameter fit): 0.5177 | Bottom (best-fit value) (Rlig1-AMP [1]): 7.458 | Top (best-fit value) (Rlig1-AMP [1]): 99.05 | IC50 (Rlig1-AMP [1]; [9]): 3.29 µM | DNA product formation ([2]; hlig1 0.0315 µM): 8.9605% and 14.7712% and 28.5706% | DNA product formation ([2]; hlig1 0.0625 µM): 20.859% and 38.2979% and 41.6376% | DNA product formation ([2]; hlig1 0.5 µM): 72.119% and 74.3311% and 77.4812% | cytotoxicity (in words) (HEK293 cells): comparatively high cytotoxicity | EC50 (HEK293 cells): 3.51 µM | IC50 (Figure 3D: EC50 values for plot; log(inhibitor) vs. response -- Variable slope (four parameters)) (HEK293 cells): 3.237 µM and 3.382 µM and 4.036 µM | LogIC50 (log(inhibitor) vs. response -- Variable slope (four parameters)) (HEK293 cells): 0.5101 and 0.5292 and 0.6059

Cc1cnc(NCCCN(C)C)c2c1[nH]c1ccc3cc(O)ccc3c12 [Intoplicine]
1-D Distance (Rlig1-AMP [3]; HTS hits, difference of raw data without and with enzyme): 1659 | Raw data [w Enyzm] (Rlig1-AMP [3]; HTS hits): 6875 | Raw data [w/o Enzym] (Rlig1-AMP [3]; HTS hits): 8534 | solubility [4]: 80 mg/mL and 229.59 mM

O=C1c2ccccc2-c2nc3nnnn3nc21.O=C1c2ccccc2-c2nn3nnnc3nc21 [KP372-1]
1-D Distance (Rlig1-AMP [3]; [10]): 385 | 1-D Distance.npi (Rlig1-AMP [3]; [11]): 99.8878 | Raw data [w Enyzm] (Rlig1-AMP [3]; HTS hits): 14308 | Raw data [w/o Enzym] (Rlig1-AMP [3]; HTS hits): 13923 | solubility ([5]; DMSO): 17.86 mg/mL and 39.83 mM

CCn1c(=O)/c(=C2\Sc3ccccc3N2C)s/c1=C\c1cccc[n+]1CC.[Cl-] [MKT-077]
1-D Distance (Rlig1-AMP [3]; [10]): 170 | 1-D Distance.npi (Rlig1-AMP [3]; [11]): 104.232 | Raw data [w Enyzm] (Rlig1-AMP [3]; HTS hits): 657 | Raw data [w/o Enzym] (Rlig1-AMP [3]; HTS hits): 827 | solubility ([5]; DMSO): 56.67 mg/mL and 131.18 mM | solubility ([5]; H2O): < 0.1 mg/mL

O=C1c2ccccc2C(=O)c2c1cc(S(=O)(=O)Nc1ccc(C(F)(F)F)cc1)c(O)c2O [PGMI-004A]
1-D Distance (Rlig1-AMP [3]; [10]): 1480 | 1-D Distance.npi (Rlig1-AMP [3]; [11]): 78.7935 | Raw data [w Enyzm] (Rlig1-AMP [3]; HTS hits): 2222 | solubility ([5]; DMSO): ≥ 125 mg/mL and ≥ 269.76 mM

Cc1[nH]c(/C=C2\C(=O)Nc3ccc(S(=O)(=O)Cc4c(Cl)cccc4Cl)cc32)c(C)c1C(=O)N1CCC[C@@H]1CN1CCCC1 [PHA-665752]
1-D Distance (Rlig1-AMP [3]; [10]): 1429 | Raw data [w Enyzm] (Rlig1-AMP [3]; HTS hits): 5362 | solubility ([5]; DMSO): 50 mg/mL and 77.93 mM

COc1cccc2c1C(=O)c1c(O)c3c(c(O)c1C2=O)C[C@@](O)(C(=O)CO)C[C@@H]3O[C@H]1C[C@H](N)[C@H](O[C@@H]2CCCCO2)[C@H](C)O1.Cl [Pirarubicin (Hydrochloride)]
1-D Distance (Rlig1-AMP [3]; [10]): 1020 | 1-D Distance.npi (Rlig1-AMP [3]; HTS hits, normalised value of 1-D Distance): 86.4182 | Raw data [w Enyzm] (Rlig1-AMP [3]; HTS hits): 2238 | Raw data [w/o Enzym] (Rlig1-AMP [3]; HTS hits): 3258 | solubility, DMSO ([6]; DMSO): 20.83 mg/mL and 31.37 mM | solubility, H2O ([6]; H2O): < 100 µg/mL

CO[C@H]1/C=C/O[C@@]2(C)Oc3c(C)c(O)c4c(O)c(c(/C=N/N5CCN(C)CC5)c(O)c4c3C2=O)NC(=O)/C(C)=C\C=C\[C@H](C)[C@H](O)[C@@H](C)[C@@H](O)[C@@H](C)[C@H](OC(C)=O)[C@@H]1C [Rifampicin]
1-D Distance (Rlig1-AMP [3]; sheet HTS hits, difference of raw data w/o and w enzyme): 268 | Raw data [w Enyzm] (Rlig1-AMP [3]; sheet HTS hits): 2212 | Raw data [w/o Enzym] (Rlig1-AMP [3]; sheet HTS hits): 2480 | solubility, DMSO ([7]; in DMSO): 50000 µg/mL (≈ 60.8 mM) | solubility, H2O ([7]; in H2O): 1000 µg/mL (≈ 1.22 mM)
